# Columns and labels:
# [1] = Solubility of compound A in Britton-Robinson buffer at each pH; type: physicochemical; details: 20° C., 30 minutes
# Experimental: Regarding a compound A, the solubility was measured by measuring the solubility in the Britton-Robinson buffer at 20° C. at each pH of pHs 1, 3, 5, 7, 9, 11 and 13. The compound A was added to a solution at each pH, the mixture was vigorously stirred for 30 seconds every 5 minutes, and an amount of a physiologically active substance dissolved at a time point of 30 minutes was measured (according to a method of confirming the solubility described in Japanese Pharmacopoeia, general rules).
SMILES,melting point,solubility on an acidic side or an alkaline side ([1]; acidic or alkaline pH),solubility at neutral pH ([1]; neutral pH)
"CCOC(=O)CNC(=O)c1cn2nc(NCCCN3CCC(OC(c4ccccc4)c4ccccc4)CC3)ccc2n1 (hydrate or solvate) [Reference Example 7, N-[6-[3-[4-(diphenylmethoxy)piperidino]propylamino]imidazo[1,2-b]pyridazine-2-carbonyl]glycine ethyl ester]",172 to 174 °C,,
"CC(C)(C(=O)O)c1cn2nc(NCCCN3CCC(OC(c4ccccc4)c4ccccc4)CC3)ccc2n1.O.O (hydrate or solvate) [compound A, 2-[6-[3-[4-(diphenylmethoxy)piperidino]propylamino]imidazo[1,2-b]pyridazin-2-yl]-2-methylpropionic acid dihydrate]",203 to 205 °C,,
"CC(C)(C(=O)O)c1cn2nc(NCCCN3CCC(OC(c4ccccc4)c4ccccc4)CC3)ccc2n1 [Reference Example 4, 2-[6-[3-[4-(diphenylmethoxy)piperidino]propylamino]imidazo[1,2-b]pyridazin-2-yl]-2-methylpropionic acid]",205 to 206 °C,,
"CC(C)(C(=O)O)c1cn2nc(NCCCN3CCC(OC(c4ccccc4)c4ccccc4)CC3)ccc2n1.O.O [compound A, 2-[6-[3-[4-(diphenylmethoxy)piperidino]propylamino]imidazo[1,2-b]pyridazin-2-yl]-2-methylpropionic acid dihydrate]",,enhanced solubility,hardly dissolved

# — US20040137052A1, “Acid-containing preparations” (priority 2001, published 2004)
